Results from patent publication US20220016215A1, “GIP RECEPTOR AGONIST PEPTIDE COMPOUNDS AND USES THEREOF” (TAKEDA PHAARMACEUTICAL COMPANY LIMITED, priority 2018, published 2022).
Several values for one entry are separate records, joined by “and”; a condition that tells them apart may be missing. Equal entries are not always repeated. Marks after values point to notes of the source that are not given here.

Experiments:
[1] = target: T1, human GIPR (Homo sapiens, UniProt P48546); test: Agonist activity on human GIPR, CRE-luciferase reporter assay (increase in intracellular cAMP as indicator); type: cell-based; conditions: GLP1R EC50 / GIPR EC50
T1 construct: expressed in transfected cells
T1 sequence (P48546 22-466): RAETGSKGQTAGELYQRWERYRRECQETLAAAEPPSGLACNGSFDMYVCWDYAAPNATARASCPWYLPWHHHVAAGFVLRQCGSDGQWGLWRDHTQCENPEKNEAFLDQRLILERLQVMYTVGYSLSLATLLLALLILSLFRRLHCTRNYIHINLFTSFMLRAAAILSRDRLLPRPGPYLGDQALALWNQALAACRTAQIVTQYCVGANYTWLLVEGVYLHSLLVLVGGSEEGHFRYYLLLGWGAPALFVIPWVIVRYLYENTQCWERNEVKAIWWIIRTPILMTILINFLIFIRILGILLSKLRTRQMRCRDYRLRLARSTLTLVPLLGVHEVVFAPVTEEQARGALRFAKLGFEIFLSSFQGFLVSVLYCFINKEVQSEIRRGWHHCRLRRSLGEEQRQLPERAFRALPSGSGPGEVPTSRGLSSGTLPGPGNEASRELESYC
Text: The human GIPR gene having an identical sequence to Genebank Accession No. U39231 is cloned into a pMSRα-neo vector to prepare hGIPR/pMSRα-neo.
(2) Construction of Reporter Plasmid Expressing Cell
Luciferase reporter gene with a cAMP-responsive sequence located upstream is transferred to a CHO-K1 cell to construct a CRE-LUC/CHO-K1 cell.
(4) Transfer of Human GIPR Gene to CRE-LUC/CHO-K1 Cell and Obtaining of Expressing Cell
The plasmid hGIPR/pMSRα-neo obtained in (1) is transferred to the CRE-LUC/CHO-K1 cell obtained in (2) to obtain a transformant. Subsequently, the cell line inducing the luciferase expression, hGIPR/CRE-LUC/CHO-K1 cell, is selected from the obtained transformant by adding GIP.
25 μL each of the hGIPR/CRE-LUC/CHO-K1 cell is inoculated in a 384-well white plate (Corning) in such a way as to provide 5×10^3 cells/well and may be cultured in a HamF12 medium containing 10% fetal bovine serum, 100 U/mL penicillin, and 100 μg/mL streptomycin in a CO2 incubator at 37° C. overnight. 5 μL of a medium containing a test compound is added to the cells and incubated for 4 hours at the indicated concentration in a CO2 incubator at 37° C. Steady-Glo (Promega) is added in amounts of 30 μL and shaken under light shielding. Twenty minutes later, luciferase activity is measured using a plate reader Envision (PerkinElmer). The GIPR agonist activity is calculated with increase in intracellular cAMP concentration as the indicator when the luciferase activity in the presence of 10 nM of GIP was 100% and the luciferase activity in the case of adding DMSO instead of the test compound was 0%.

[2] = tested on: morphine (0.6 mg/kg, s.c.)-induced emesis in ferrets; test: Morphine-induced acute emetic model in male ferrets; type: in vivo, ferret; conditions: for Retching Latency / Emesis (Retching + Vomiting) Duration / Retching Duration / Vomiting Duration / Fidget Duration / Licking Duration / Retching Frequency / Vomiting Frequency / Emesis (Retching + Vomiting) Latency / Vomiting Latency / Fidget Latency / Licking Latency / Emesis: Duration / Emesis: Frequency / Emesis: No. of animals (responder/used) / Fidget: Duration / Fidget: Frequency / Fidget: No. of animals (responder/used) / Licking: Duration / Licking: Frequency / Licking: No. of animals (responder/used) / Retching: Duration / Retching: Frequency / Retching: No. of animals (responder/used) / Vomiting: Duration / Vomiting: Frequency / Vomiting: No. of animals (responder/used) / Emesis: Latency / Fidget: Latency / Licking: Latency / Retching: Latency / Vomiting: Latency: ferrets, 10 nmol/kg s.c.; for Retching Latency: morphine (0.6 mg/kg, s.c.) administered 4 h after; for Retching Latency / Emesis (Retching + Vomiting) Duration / Retching Duration / Vomiting Duration / Fidget Duration / Licking Duration / Retching Frequency / Vomiting Frequency / Emesis (Retching + Vomiting) Latency / Vomiting Latency / Fidget Latency / Licking Latency: individual animals and Mean; for Retching Latency / Emesis (Retching + Vomiting) Latency / Vomiting Latency: no emetic response = 30 min; for Emesis (Retching + Vomiting) Duration / Retching Duration / Vomiting Duration / Fidget Duration / Licking Duration / Retching Frequency / Vomiting Frequency / Emesis (Retching + Vomiting) Latency / Vomiting Latency / Fidget Latency / Licking Latency: morphine administered 4 h after; for Emesis (Retching + Vomiting) Duration / Retching Duration / Vomiting Duration: cumulative total duration; for Fidget Latency / Licking Latency: no response = 30 min; for Emesis: Duration / Emesis: Frequency / Emesis: No. of animals (responder/used) / Fidget: Duration / Fidget: Frequency / Fidget: No. of animals (responder/used) / Licking: Duration / Licking: Frequency / Licking: No. of animals (responder/used) / Retching: Duration / Retching: Frequency / Retching: No. of animals (responder/used) / Vomiting: Duration / Vomiting: Frequency / Vomiting: No. of animals (responder/used) / Emesis: Latency / Fidget: Latency / Licking: Latency / Retching: Latency / Vomiting: Latency: morphine 0.6 mg/kg s.c. 4 h after drug; for Emesis: Latency / Fidget: Latency / Licking: Latency / Retching: Latency / Vomiting: Latency: non-responders counted as 30 min; for Comment: Anti-Emetic Activity (inhibition) on morphine-induced emesis: male ferrets, summary of the morphine experiments
In short: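 Male ferrets (4 per group) received peptide at 10 or 30 nmol/kg s.c. in 0.09% Tween 80/10% DMSO/saline, or vehicle. Morphine 0.6 mg/kg s.c. was given 4 or 120 h later, and abdominal contractions, vomiting, licking and fidgeting were recorded for up to 360 min.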

Substance	Selectivity Ratio (B/A) [1]	Retching Latency [2] [min]	Emesis (Retching + Vomiting) Duration [2]	Retching Duration [2] [min]	Vomiting Duration [2] [min]	Fidget Duration [2]	Licking Duration [2]	Retching Frequency [2]	Vomiting Frequency [2]	Emesis (Retching + Vomiting) Latency [2] [min]	Vomiting Latency [2] [min]	Fidget Latency [2]	Licking Latency [2]	Emesis: Duration [2] [min]	Emesis: Frequency [2]	Emesis: No. of animals (responder/used) [2]	Fidget: Duration [2]	Fidget: Frequency [2]	Fidget: No. of animals (responder/used) [2]	Licking: Duration [2]	also measured
YAibEGTFISDYSIALDKI(Lys-(ethylene glycol)2-C15 diacid)QQDFVNWLLAQRG-OH [Compound 25]	>100,000	30	0 min (4×) and 0.0 min	0	0	0 min (4×) and 0.0 min	0 min (4×) and 0.0 min	0	0	30	30	30 min (4×) and 30.0 min	30 min (4×) and 30.0 min	0.0 ± 0.0	0.0 ± 0.0	0/4 #	0.0 ± 0.0^ min	0.0 ± 0.0	0/4 #	0.0 ± 0.0^ min	Licking: Frequency [2]: 0.0 ± 0.0; Licking: No. of animals (responder/used) [2]: 0/4 #; Retching: Duration [2]: 0.0 ± 0.0 min; Retching: Frequency [2]: 0.0 ± 0.0; Retching: No. of animals (responder/used) [2]: 0/4 #; Vomiting: Duration [2]: 0.0 ± 0.0 min; Vomiting: Frequency [2]: 0.0 ± 0.0; Vomiting: No. of animals (responder/used) [2]: 0/4 #; Emesis: Latency [2]: 30.0 ± 0.0 min; Fidget: Latency [2]: 30.0 ± 0.0 min; Licking: Latency [2]: 30.0 ± 0.0 min; Retching: Latency [2]: 30.0 ± 0.0 min; Vomiting: Latency [2]: 30.0 ± 0.0 min; Comment: Anti-Emetic Activity (inhibition) on morphine-induced emesis [2]: 100% inhibition
YAibEGTFISDYSIELDK(Lys-(ethylene glycol)2-C15 diacid)AAQAFIEWLLAQGPSSGAPPPS-NH2 [Compound 20]	>100,000	30	0 min (4×) and 0.0 min	0	0	0 min (4×) and 0.0 min	0 min (4×) and 0.0 min	0	0	30	30	30 min (4×) and 30.0 min	30 min (4×) and 30.0 min	0.0 ± 0.0	0.0 ± 0.0	0/4 #	0.0 ± 0.0^ min	0.0 ± 0.0	0/4 #	0.0 ± 0.0^ min	Licking: Frequency [2]: 0.0 ± 0.0; Licking: No. of animals (responder/used) [2]: 0/4 #; Retching: Duration [2]: 0.0 ± 0.0 min; Retching: Frequency [2]: 0.0 ± 0.0; Retching: No. of animals (responder/used) [2]: 0/4 #; Vomiting: Duration [2]: 0.0 ± 0.0 min; Vomiting: Frequency [2]: 0.0 ± 0.0; Vomiting: No. of animals (responder/used) [2]: 0/4 #; Emesis: Latency [2]: 30.0 ± 0.0 min; Fidget: Latency [2]: 30.0 ± 0.0 min; Licking: Latency [2]: 30.0 ± 0.0 min; Retching: Latency [2]: 30.0 ± 0.0 min; Vomiting: Latency [2]: 30.0 ± 0.0 min; Comment: Anti-Emetic Activity (inhibition) on morphine-induced emesis [2]: 100% inhibition
